Reference: PubChem BioAssay AID2060349 (Molecular Pharmacology Branch, DTP, NCI, 2025)
Where “and” joins values, the source holds several entries; their conditions need not be identical. Equal entries are not always repeated.

Tested on: 762968-020-R-J2-PDC spheroids viability
Assay: Anticancer human tumor 762968-020-R-J2-PDC patient-derived colon carcinoma cell line growth inhibition [TAK]
Conditions: spheroids with HUVEC and MSC; for viability, T/C: stronger effect = lower value
How it was run: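 Drug combinations, each paired with TAK-243 or ipatasertib, were tested on multi-cell spheroids of 60% malignant cells, 25% HUVEC and 15% hMSC. Top concentrations were at or near the clinical Cmax (10 microM if undetermined), decreasing by half-log; viability is given as % test/control.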
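Note: spheroids exposed to drug for 7 days before readout.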
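Throughout, for viability, T/C: 100% = DMSO vehicle control wells.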

In the case of `COc1c(OCCCN2CCOCC2)ccc2c3n(c(=NC(=O)c4cnc(N)nc4)nc12)CCN3`, the viability, T/C (compound 0.00316 µM) is reported as 101% and 102%, the viability, T/C (compound 0.01 µM) is reported as 95.3% and 72% and the viability, T/C (compound 0.0316 µM) is reported as 93% and 53.6%. For the same molecule, the viability, T/C (compound 0.1 µM) was 80.6% and 42.5%, the viability, T/C (compound 0.316 µM) was 76.2% and 50.6% and the viability, T/C (compound 1 µM) was 73.9% and 52.4%.
With `COC1CC2CCC(C)C(O)(O2)C(=O)C(=O)N2CCCCC2C(=O)OC(C(C)CC2CCC(OCCO)C(OC)C2)CC(=O)C(C)C=C(C)C(O)C(OC)C(=O)C(C)CC(C)C=CC=CC=C1C` (stereo not given) the viability, T/C (compound 0.000316 µM) was 103% and 106%, the viability, T/C (compound 0.001 µM) was 99.4% and 100% and the viability, T/C (compound 0.00316 µM) was 104% and 96.8%. For the same molecule, the viability, T/C (compound 0.01 µM) was 105% and 107%, the viability, T/C (compound 0.0316 µM) was 101% and 107% and the viability, T/C (compound 0.1 µM) was 99.1% and 95.3%. The IC50 (curve of compound) was greater than 0.1 µM.
With `CC(C)(C)c1nc(-c2cccc(NS(=O)(=O)c3c(F)cccc3F)c2F)c(-c2ccnc(N)n2)s1` the viability, T/C (compound 0.0316 µM) was 85.6% and 94.4%, the viability, T/C (compound 0.1 µM) was 82.9% and 88.2% and the viability, T/C (compound 0.316 µM) was 92.5% and 85.2%. For the same molecule, the viability, T/C (compound 1 µM) was 86.4% and 81%, the viability, T/C (compound 3.16 µM) was 90.5% and 88.5% and the viability, T/C (compound 10 µM) was 99.3% and 86.4%. For the same molecule, the IC50 (curve of compound) was greater than 10 µM.
`CC(C)NCC(C(=O)N1CCN(c2ncnc3c2C(C)CC3O)CC1)c1ccc(Cl)cc1` (stereo not given) was tested, and the viability, T/C (compound 0.3 µM) was 103% [middle of 10 runs], the viability, T/C (compound 0.949 µM) was 101% [middle of 10 runs] and the viability, T/C (compound 3 µM) was 104% [middle of 10 runs]. The viability, T/C (compound 9.49 µM) was 99.7% [middle of 10 runs], the IC50 (compound alone, run of 02/28/2020) was 17.2 µM and the IC50 (compound alone, run of 03/19/2020) was greater than 30 µM.
`CC(C)CC(NC(=O)C(Cc1ccccc1)NC(=O)c1cnccn1)B(O)O` (stereo not given) was tested, and the viability, T/C (compound 31.6 pM) was 94.6% and 101%, the viability, T/C (compound 0.0001 µM) was 102% and 101% and the viability, T/C (compound 0.000316 µM) was 108% and 96.2%. For the same molecule, the viability, T/C (compound 0.001 µM) was 103% and 99.8%, the viability, T/C (compound 0.00316 µM) was 109% and 99% and the viability, T/C (compound 0.01 µM) was 90.6% and 93.7%. For the same molecule, the IC50 (curve of compound) was greater than 0.01 µM.
In the case of `CC(C)n1nc(-c2ccc3oc(N)nc3c2)c2c(N)ncnc21` + CC(C)NCC(C(=O)N1CCN(c2ncnc3c2C(C)CC3O)CC1)c1ccc(Cl)cc1, the IC50 (curve of first compound, second compound 0.3 µM) is reported as greater than 0.1 µM, the IC50 (curve of first compound, second compound 0.949 µM) is reported as greater than 0.1 µM and the IC50 (curve of first compound, second compound 3 µM) is reported as greater than 0.1 µM. The IC50 (curve of first compound, second compound 9.49 µM) was greater than 0.1 µM, the IC50 (curve of first compound, second compound 30 µM) was greater than 0.1 µM and the viability, T/C (second compound 0.3 µM, first compound 0.000316 µM) was 96.5%. The viability, T/C (second compound 0.3 µM, first compound 0.001 µM) was 97.1%, the viability, T/C (second compound 0.3 µM, first compound 0.00316 µM) was 101% and the viability, T/C (second compound 0.3 µM, first compound 0.01 µM) was 91.8%. It also gave a viability, T/C (second compound 0.3 µM, first compound 0.0316 µM) of 87.5%, a viability, T/C (second compound 0.3 µM, first compound 0.1 µM) of 72.9% and a viability, T/C (second compound 0.949 µM, first compound 0.000316 µM) of 96.9%. It also gave a viability, T/C (second compound 0.949 µM, first compound 0.001 µM) of 96.7%, a viability, T/C (second compound 0.949 µM, first compound 0.00316 µM) of 99.9% and a viability, T/C (second compound 0.949 µM, first compound 0.01 µM) of 99.3%. For the same molecule, the viability, T/C (second compound 0.949 µM, first compound 0.0316 µM) was 87.4%, the viability, T/C (second compound 0.949 µM, first compound 0.1 µM) was 73.2% and the viability, T/C (second compound 3 µM, first compound 0.000316 µM) was 99.5%. It also gave a viability, T/C (second compound 3 µM, first compound 0.001 µM) of 95.1%, a viability, T/C (second compound 3 µM, first compound 0.00316 µM) of 103% and a viability, T/C (second compound 3 µM, first compound 0.01 µM) of 93.4%. It also gave a viability, T/C (second compound 3 µM, first compound 0.0316 µM) of 92.3%, a viability, T/C (second compound 3 µM, first compound 0.1 µM) of 65.7% and a viability, T/C (second compound 9.49 µM, first compound 0.000316 µM) of 94.4%. The viability, T/C (second compound 9.49 µM, first compound 0.001 µM) was 103%, the viability, T/C (second compound 9.49 µM, first compound 0.00316 µM) was 98.3% and the viability, T/C (second compound 9.49 µM, first compound 0.01 µM) was 93.4%. It also gave a viability, T/C (second compound 9.49 µM, first compound 0.0316 µM) of 79.1%, a viability, T/C (second compound 9.49 µM, first compound 0.1 µM) of 63.5% and a viability, T/C (second compound 30 µM, first compound 0.000316 µM) of 83%. For the same molecule, the viability, T/C (second compound 30 µM, first compound 0.001 µM) was 84.2%, the viability, T/C (second compound 30 µM, first compound 0.00316 µM) was 84.3% and the viability, T/C (second compound 30 µM, first compound 0.01 µM) was 81.9%. For the same molecule, the viability, T/C (second compound 30 µM, first compound 0.0316 µM) was 74% and the viability, T/C (second compound 30 µM, first compound 0.1 µM) was 63.6%.
With `Cn1cnc2c(F)c(Nc3ccc(Br)cc3Cl)c(C(=O)NOCCO)cc21` the viability, T/C (compound 0.00949 µM) was 103% and 98.9%, the viability, T/C (compound 0.03 µM) was 93.8% and 91.6% and the viability, T/C (compound 0.0949 µM) was 89% and 82%. For the same molecule, the viability, T/C (compound 0.3 µM) was 83.4% and 78.8%, the viability, T/C (compound 0.949 µM) was 67.7% and 64.5% and the viability, T/C (compound 3 µM) was 49.1% and 44.4%. The IC50 (curve of compound) was 2.95 µM and 2.24 µM.
